Read-outs that look alike come from different tables or passages of the source.
How the values were obtained:
HDAC2 = target: T1, HDAC2 (Homo sapiens, UniProt Q92769); assay: In vitro HDACs inhibition fluorescence assay, HDAC2; assay type: biochemical; conditions: mean ± SEM
T1 construct: purchased BPS Bioscience
Description: (§1) In Vitro HDACs Inhibition Fluorescence Assay: For the inhibitory activity against HDAC1‐10, enzymes were also procured from BPS Bioscience. The in vitro […] inhibition assays were conducted following the established method described previously.^[ [45] ^] The working concentrations of HDAC1‐10 were 4 × 10^−9 M. The fluorogenic substrate of HDAC1, 2, 3, and 6 was Boc‐Lys (acetyl)‐AMC, and the substrate of HDAC4, 5, 7, 8, 9, and 10 was Boc‐Lys (trifluoroacetyl) AMC. The developer solution consists of 30 mg mL^−1 trypsin and 5 × 10^−6 M TSA. A standing period of 30 min was sufficient before assessing the fluorescence intensity.

HDAC3 = target: T2, HDAC3 (Homo sapiens, UniProt O15379); assay: In vitro HDACs inhibition fluorescence assay, HDAC3; assay type: biochemical; conditions: mean ± SEM
T2 construct: purchased BPS Bioscience
T2 sequence (O15379 whole entry): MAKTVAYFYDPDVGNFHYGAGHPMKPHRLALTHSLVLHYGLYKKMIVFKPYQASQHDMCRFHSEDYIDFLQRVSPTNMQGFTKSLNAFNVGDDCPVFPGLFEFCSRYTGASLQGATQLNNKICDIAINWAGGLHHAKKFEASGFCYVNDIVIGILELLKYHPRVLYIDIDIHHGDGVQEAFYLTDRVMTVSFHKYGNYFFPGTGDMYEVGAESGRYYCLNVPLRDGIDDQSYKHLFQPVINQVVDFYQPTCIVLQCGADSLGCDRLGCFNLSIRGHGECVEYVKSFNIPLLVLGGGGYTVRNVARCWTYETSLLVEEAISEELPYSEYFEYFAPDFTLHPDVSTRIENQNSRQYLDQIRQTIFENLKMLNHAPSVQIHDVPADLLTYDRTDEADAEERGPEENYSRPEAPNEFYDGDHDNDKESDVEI
T2 sequence (Q9Y618 395-489 partner limits assumed): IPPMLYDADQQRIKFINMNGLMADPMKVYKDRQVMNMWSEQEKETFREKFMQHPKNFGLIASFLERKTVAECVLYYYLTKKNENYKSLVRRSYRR
Description: as §1

HDAC4 = target: T3, HDAC4 (Homo sapiens, UniProt P56524); assay: In vitro HDACs inhibition fluorescence assay, HDAC4; assay type: biochemical; conditions: mean ± SEM
T3 construct: purchased BPS Bioscience
T3 sequence (P56524 whole entry): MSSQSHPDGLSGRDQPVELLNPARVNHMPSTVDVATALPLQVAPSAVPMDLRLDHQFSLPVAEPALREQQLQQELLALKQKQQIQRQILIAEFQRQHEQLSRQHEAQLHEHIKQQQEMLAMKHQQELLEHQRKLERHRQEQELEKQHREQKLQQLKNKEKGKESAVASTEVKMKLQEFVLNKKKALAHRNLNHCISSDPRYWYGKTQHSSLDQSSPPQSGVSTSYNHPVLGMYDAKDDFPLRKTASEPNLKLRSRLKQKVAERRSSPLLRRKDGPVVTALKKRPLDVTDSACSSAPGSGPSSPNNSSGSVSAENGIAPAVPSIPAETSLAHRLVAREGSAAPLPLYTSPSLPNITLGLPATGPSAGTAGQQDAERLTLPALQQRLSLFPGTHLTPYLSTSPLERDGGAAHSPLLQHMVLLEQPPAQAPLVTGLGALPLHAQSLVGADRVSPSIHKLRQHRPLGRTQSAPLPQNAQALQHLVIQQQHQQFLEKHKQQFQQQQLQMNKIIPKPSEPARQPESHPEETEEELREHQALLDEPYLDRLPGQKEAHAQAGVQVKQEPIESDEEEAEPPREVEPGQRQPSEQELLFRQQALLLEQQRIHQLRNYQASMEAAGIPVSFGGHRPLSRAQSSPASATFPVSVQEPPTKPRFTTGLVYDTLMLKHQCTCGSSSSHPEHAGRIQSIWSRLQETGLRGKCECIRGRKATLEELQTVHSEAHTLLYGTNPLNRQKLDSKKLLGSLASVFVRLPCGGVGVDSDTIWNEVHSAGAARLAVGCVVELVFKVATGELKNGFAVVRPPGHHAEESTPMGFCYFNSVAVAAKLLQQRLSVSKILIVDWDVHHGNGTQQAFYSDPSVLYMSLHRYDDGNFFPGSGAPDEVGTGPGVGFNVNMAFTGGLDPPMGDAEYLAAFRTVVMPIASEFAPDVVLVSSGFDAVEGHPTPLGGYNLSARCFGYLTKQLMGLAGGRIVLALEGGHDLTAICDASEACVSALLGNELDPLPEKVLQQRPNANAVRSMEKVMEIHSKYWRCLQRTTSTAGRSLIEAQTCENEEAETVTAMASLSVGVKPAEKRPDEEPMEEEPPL
Description: as §1

HDAC5 = target: T4, HDAC5 (Homo sapiens, UniProt Q9UQL6); assay: In vitro HDACs inhibition fluorescence assay, HDAC5; assay type: biochemical; conditions: mean ± SEM
T4 construct: purchased BPS Bioscience
T4 sequence (Q9UQL6 whole entry): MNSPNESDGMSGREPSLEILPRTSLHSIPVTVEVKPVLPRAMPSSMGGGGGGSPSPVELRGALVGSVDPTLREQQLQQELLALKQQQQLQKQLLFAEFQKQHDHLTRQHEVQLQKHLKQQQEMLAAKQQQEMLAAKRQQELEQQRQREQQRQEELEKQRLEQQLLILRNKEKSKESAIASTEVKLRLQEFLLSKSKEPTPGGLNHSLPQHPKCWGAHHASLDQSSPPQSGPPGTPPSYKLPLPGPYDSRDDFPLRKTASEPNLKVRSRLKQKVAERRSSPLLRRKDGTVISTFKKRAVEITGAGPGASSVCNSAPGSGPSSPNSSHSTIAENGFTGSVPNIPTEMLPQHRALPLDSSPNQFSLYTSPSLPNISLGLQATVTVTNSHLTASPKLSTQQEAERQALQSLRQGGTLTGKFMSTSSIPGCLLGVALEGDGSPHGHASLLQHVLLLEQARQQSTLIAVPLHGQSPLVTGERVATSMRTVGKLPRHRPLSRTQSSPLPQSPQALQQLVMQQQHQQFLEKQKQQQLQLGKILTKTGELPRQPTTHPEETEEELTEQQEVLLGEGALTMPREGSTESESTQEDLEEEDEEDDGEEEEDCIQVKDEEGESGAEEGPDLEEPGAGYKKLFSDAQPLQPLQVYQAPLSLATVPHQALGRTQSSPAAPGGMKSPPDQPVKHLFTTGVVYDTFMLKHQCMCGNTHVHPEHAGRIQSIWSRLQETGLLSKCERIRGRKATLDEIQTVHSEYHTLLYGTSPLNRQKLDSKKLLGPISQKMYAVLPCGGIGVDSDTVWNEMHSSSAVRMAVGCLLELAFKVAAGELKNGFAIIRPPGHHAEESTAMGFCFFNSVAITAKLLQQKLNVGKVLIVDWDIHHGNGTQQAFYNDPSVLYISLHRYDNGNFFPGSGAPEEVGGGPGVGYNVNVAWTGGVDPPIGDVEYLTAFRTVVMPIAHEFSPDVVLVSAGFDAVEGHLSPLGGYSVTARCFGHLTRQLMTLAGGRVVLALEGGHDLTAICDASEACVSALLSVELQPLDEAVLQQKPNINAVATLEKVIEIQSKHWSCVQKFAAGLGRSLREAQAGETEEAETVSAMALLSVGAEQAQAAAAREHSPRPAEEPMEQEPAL
Description: as §1

HDAC7 = target: T5, HDAC7 (Homo sapiens, UniProt Q8WUI4); assay: In vitro HDACs inhibition fluorescence assay, HDAC7; assay type: biochemical; conditions: mean ± SEM
T5 construct: purchased BPS Bioscience
T5 sequence (Q8WUI4 whole entry): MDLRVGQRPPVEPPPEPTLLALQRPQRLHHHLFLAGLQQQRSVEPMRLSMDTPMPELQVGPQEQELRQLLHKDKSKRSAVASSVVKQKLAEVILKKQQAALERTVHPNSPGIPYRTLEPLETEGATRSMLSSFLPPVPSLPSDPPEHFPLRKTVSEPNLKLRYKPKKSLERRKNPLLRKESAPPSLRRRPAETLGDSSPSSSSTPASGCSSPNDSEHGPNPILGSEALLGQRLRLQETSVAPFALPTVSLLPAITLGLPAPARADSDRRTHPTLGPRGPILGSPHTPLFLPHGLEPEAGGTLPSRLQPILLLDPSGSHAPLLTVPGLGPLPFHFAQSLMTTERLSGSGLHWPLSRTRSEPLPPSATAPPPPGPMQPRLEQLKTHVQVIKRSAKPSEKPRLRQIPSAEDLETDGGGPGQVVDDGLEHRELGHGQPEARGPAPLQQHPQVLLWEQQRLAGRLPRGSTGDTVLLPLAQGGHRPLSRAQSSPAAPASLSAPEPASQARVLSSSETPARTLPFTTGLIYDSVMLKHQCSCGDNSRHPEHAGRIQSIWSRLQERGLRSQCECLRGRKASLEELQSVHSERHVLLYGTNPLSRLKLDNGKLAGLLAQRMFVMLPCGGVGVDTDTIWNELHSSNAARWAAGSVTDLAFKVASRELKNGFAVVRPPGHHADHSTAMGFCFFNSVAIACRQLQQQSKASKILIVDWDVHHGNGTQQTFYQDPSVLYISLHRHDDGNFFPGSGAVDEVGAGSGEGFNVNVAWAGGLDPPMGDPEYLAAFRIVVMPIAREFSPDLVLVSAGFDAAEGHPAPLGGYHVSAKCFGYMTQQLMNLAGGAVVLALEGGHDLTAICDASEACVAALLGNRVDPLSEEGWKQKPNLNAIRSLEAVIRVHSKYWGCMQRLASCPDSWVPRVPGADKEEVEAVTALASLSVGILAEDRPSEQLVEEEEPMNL
Description: as §1

HDAC9 = target: T6, HDAC9 (Homo sapiens, UniProt Q9UKV0); assay: In vitro HDACs inhibition fluorescence assay, HDAC9; assay type: biochemical; conditions: mean ± SEM
T6 construct: purchased BPS Bioscience
Description: as §1

HDAC10 = target: T7, HDAC10 (Homo sapiens, UniProt Q969S8); assay: In vitro HDACs inhibition fluorescence assay, HDAC10; assay type: biochemical; conditions: mean ± SEM
T7 construct: purchased BPS Bioscience
T7 sequence (Q969S8 whole entry): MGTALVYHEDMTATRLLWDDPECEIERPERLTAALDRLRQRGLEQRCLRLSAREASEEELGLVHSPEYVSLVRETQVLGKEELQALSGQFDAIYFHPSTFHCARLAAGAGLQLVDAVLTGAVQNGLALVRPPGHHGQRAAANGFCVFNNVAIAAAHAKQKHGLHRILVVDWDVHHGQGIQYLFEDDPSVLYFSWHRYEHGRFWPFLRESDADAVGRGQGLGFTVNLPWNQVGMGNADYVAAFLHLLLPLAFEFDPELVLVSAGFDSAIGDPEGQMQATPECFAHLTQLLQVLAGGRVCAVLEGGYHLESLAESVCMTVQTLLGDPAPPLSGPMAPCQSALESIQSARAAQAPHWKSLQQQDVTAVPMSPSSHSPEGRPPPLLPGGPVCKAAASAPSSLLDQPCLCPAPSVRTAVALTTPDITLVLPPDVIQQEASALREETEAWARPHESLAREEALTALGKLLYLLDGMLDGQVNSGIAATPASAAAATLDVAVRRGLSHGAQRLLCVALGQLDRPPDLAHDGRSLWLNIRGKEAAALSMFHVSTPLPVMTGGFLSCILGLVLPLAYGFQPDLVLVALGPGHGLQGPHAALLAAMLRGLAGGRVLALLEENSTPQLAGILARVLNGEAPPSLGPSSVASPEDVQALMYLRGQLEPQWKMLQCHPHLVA
Description: as §1

[1] = Pharmacokinetic study in ICR mice (i.v. and p.o.); assay type: in vivo; conditions: male, mouse, plasma; for MRT inf: read-out: MRT0-inf
Description: Pharmacokinetics study was performed by Medicilon Preclinical Research (Shanghai) LLC. Male ICR mice, which were purchased from Sino‐British SIPPR Lab Animal Ltd., Shanghai (25–30 g, 14 weeks of age), were fasted overnight before administration and resumed food 6 h after initial plasma sampling. Compound was dissolved in solution containing 10% DMAC, 40% PEG‐400, and 50% water and was delivered to three animals by intravenous bolus injection (i.v.) and oral gavage (p.o.) at a dose of 5 and 20 mg kg^−1 with a volume of 5 and 10 mL kg^−1, respectively. Blood samples were collected at the following time points: 5, 15, 30 min and 1, 2, 4, 6, 8, and 24 h post dose administration. The blood samples were taken via submandibular vein, 30 µL/time point.
Sample were placed in tubes containing K2‐EDTA and stored on ice until centrifuged. The blood samples were centrifuged at 6800 g for 6 min at 2–8 °C within 1 h after collected and stored frozen at ≈−80 °C. A 20 µL plasma sample was treated with 400 µL of methanol containing 10 ng mL^−1 IS to precipitate the protein. The mix was then vortexed for a minute and centrifuged at 18 000 g for 7 min. The resulting supernatant (400 µL) was transferred to a 96‐well plate, and an injection of 1 µL of this supernatant was used for the LC‐MS/MS analysis. The animal protocols used in this study were approved by the Preclinical R&D Unit of Medicilon Institutional Animal Care and Use Committee (IACUC) (26030‐21002) and operated in accordance with the Guide for the Care and Use of Laboratory Animals published by the National Institutes of Health (NIH).

[2] = system: acetylation of histone H3, histone H4, and α-tubulin; assay: Acetylation of histone H3, histone H4 and α-tubulin in HEK293T cells (immunoblot); assay type: cell-based; conditions: HEK293T cells, 0.25, 0.5 and 1 × 10^−6 M, 24 h
Description: (§2) Western blot was carried out as described.^[ [49] ^] In brief, samples were lysed with a lysis buffer. The same quantity of total proteins (40–60 µg) from each sample was separated on SDS‐PAGE followed by transfer onto a nitrocellulose filter membrane and incubation with the indicated antibodies. After incubation with secondary antibodies, the protein bands were visualized using a chemiluminescence imaging system. All samples in the same group were processed simultaneously.

AML12 cells [3] = assay: FFA-induced lipid accumulation in AML12 cells (Oil Red O); assay type: cell-based; conditions: 24 h
[4] = system: SREBP1c, FASN, SCD1, CPT1A, PGC1α, PPARα expression in AML12 cells; assay: Protein and mRNA expression of DNL and fatty acid oxidation genes in FFA-treated AML12 cells; assay type: cell-based
Description: as §2
(§3) Cells and liver tissues were extracted for total RNA. A reverse transcription kit was used to synthesize cDNA. qRT‐PCR was performed with the primers listed in Table S1 (Supporting Information) using the SYBR green PCR master mix. The coding sequence of the target gene was found in NCBI, and Primer3 (v.0.4.0) was used to design amplification primers. The results were normalized by β‐actin in the corresponding sample.

AML12 cells [5] = assay: Mitochondrial activity (Mito-Tracker, Seahorse OCR) in FFA-treated AML12 cells; assay type: cell-based
[6] = system: SREBP1c, FASN, SCD1, CPT1A, PGC1α, PPARα, p-AMPKα (Thr172), LKB1 in HepG2 cells; assay: Protein and mRNA expression and AMPKα phosphorylation in FFA-induced HepG2 cells; assay type: cell-based, human
Description: For the lipid accumulation experiment, HepG2 cells were incubated for 24 h in DMEM containing 0.5 × 10^−3 M of a mixture of free fatty acids (FFA; oleic acid: palmitic acid = 2:1) and 1% FFA‐free bovine serum albumin to induce intracellular lipid accumulation, together with B6 treatment.
as §2, §3

ICR mice = assay: Subacute toxicity study in ICR mice; assay type: in vivo
Description: For evaluation of subacute toxicity, ICR mice were divided into two groups (n = 8 per group (4M, 4F)). The B6 was prepared in vehicle (10% DMSO and 90% 0.5% HPMC aqueous solution) to administer once daily, by oral gavage for 30 d in the treatment groups. To the control groups, vehicle was administered orally. The animals were monitored for clinical and behavioral symptoms such as body weight, diarrhea, immobility, and mortality during the first day and thereafter for 30 d.

[7] = ICR, po, 20 mg/kg, p.o. at 20 mg/kg
[8] = FFA-induced HepG2 cells, 0.5 × 10^−6 M, 24 h
[9] = FFA-treated HepG2 cells, 0.5 × 10^−6 M, 24 h
[10] = 50 mg kg^−1 p.o. daily for 30 d, vs control group

T1 sequence (Q92769 whole entry): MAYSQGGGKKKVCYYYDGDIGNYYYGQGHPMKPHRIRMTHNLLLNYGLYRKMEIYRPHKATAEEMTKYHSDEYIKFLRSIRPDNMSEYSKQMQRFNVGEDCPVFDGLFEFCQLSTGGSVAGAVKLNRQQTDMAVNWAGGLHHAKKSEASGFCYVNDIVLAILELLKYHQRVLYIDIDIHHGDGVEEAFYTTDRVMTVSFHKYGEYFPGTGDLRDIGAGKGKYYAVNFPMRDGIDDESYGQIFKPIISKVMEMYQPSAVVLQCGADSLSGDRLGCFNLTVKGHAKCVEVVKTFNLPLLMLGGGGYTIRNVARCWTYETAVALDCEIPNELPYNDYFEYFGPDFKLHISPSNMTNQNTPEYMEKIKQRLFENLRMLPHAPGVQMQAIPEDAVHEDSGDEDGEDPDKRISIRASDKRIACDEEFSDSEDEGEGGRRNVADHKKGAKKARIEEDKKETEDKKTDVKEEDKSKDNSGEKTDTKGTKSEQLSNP

**Q.** With `CCCCCOCCCCCNNC(=O)c1ccc(CNC(=O)c2ccccc2)cc1` [B6] as the compound, how does the IC50 (HDAC2) read?
**A.** Its IC50 is > 10 µM.

**Q.** What about the IC50 (HDAC3) of the same compound?
**A.** Its IC50 is > 10 µM.

**Q.** What about the IC50 (HDAC4) of the same compound?
**A.** The IC50 was > 10 µM.

**Q.** And the IC50 (HDAC5)?
**A.** The IC50 was > 10 µM.

**Q.** What about the IC50 (HDAC7) of the same compound?
**A.** The IC50 was > 10 µM.

**Q.** What about the IC50 (HDAC9) of the same compound?
**A.** Its IC50 is > 10 µM.

**Q.** And the IC50 (HDAC10)?
**A.** The IC50 was > 10 µM.

**Q.** What about the AUC(0-inf) [1, 7] of the same compound?
**A.** Its AUC(0-inf) is 3480 ng·h/mL.

**Q.** And the Cmax [1, 7]?
**A.** The Cmax was 2610 ng/mL.

**Q.** And the half-life ([1]; iv, i.v. at 5 mg/kg)?
**A.** The half-life was 3.8 h.

**Q.** What about the clearance ([1]; iv, i.v. at 5 mg/kg) of the same compound?
**A.** Its clearance is 39.5 ± 13.5 mL/min/kg.

**Q.** What about the MRT inf ([1]; iv, i.v. at 5 mg/kg) of the same compound?
**A.** The MRT inf was 0.23 ± 0.02 h.

**Q.** What about the bioavailability ([1]; oral, p.o. at 20 mg/kg vs i.v. at 5 mg/kg, read-out: oral bioavailability (F%)) of the same compound?
**A.** The bioavailability was 34.5%.

**Q.** What about the MRT inf ([1]; po, p.o. at 20 mg/kg) of the same compound?
**A.** The MRT inf was 2.6 ± 0.8 h.

**Q.** And the half-life ([1]; po, p.o. at 20 mg/kg)?
**A.** The half-life was 2.3 h.

**Q.** And the “acetylation levels of histones H3 and H4 or tubulin” value [2]?
**A.** Its value is “no effect”.

**Q.** And the “concentration of maximal effect on lipid accumulation” value (AML12 cells [3])?
**A.** The value was 500 nM.

**Q.** What about the FFA-induced lipid accumulation (AML12 cells [3]; various concentrations) of the same compound?
**A.** The FFA-induced lipid accumulation was “significantly mitigated”.

**Q.** And the “FFA-suppressed protein and mRNA expression of CPT1A, PGC1α and PPARα” value [4]?
**A.** The value was “partially restored”.

**Q.** What about the “FFA-upregulated protein and mRNA expression of SREBP1c, FASN and SCD1” value ([4]; 0.5 × 10^−6 M, 24 h) of the same compound?
**A.** The value was “reversed”.

**Q.** And the “FFA-inhibited mitochondrial activity (Mito-Tracker staining)” value (AML12 cells [5])?
**A.** Its value is “ameliorated”.

**Q.** What about the “mitochondrial stress test (OCR, basal and maximal respiration)” value (AML12 cells [5]; FFA) of the same compound?
**A.** The value was “partially restored mitochondrial activity”.

**Q.** What about the “LKB1 mRNA levels” value ([6]; FFA-induced HepG2 cells) of the same compound?
**A.** Its value is “increase in LKB1 mRNA levels”.

**Q.** What about the “mRNA levels of CaMKKβ and TAK1” value ([6]; FFA-induced HepG2 cells) of the same compound?
**A.** The value was “did not exhibit significant changes”.

**Q.** And the “protein and mRNA expression of CPT1A, PGC1α and PPARα” value [6, 8]?
**A.** Its value is “upregulation of protein and mRNA expression”.

**Q.** What about the “protein and mRNA expression of SREBP1c, FASN and SCD1” value [6, 8] of the same compound?
**A.** Its value is “reduction of protein and mRNA expression”.

**Q.** What about the “phosphorylation of AMPKα at Thr172” value [6, 9] of the same compound?
**A.** The value was “restores the phosphorylation level”.

**Q.** And the “protein expression of LKB1 and p-LKB1” value [6, 9]?
**A.** The value was “increase LKB1 expression”.

**Q.** And the “overall health and behavior” value (ICR mice; 50 mg kg^−1 p.o. daily for 30 d, ICR mice)?
**A.** Its value is “no signs of toxicity”.

**Q.** What about the “body weight of male and female mice” value (ICR mice; [10]) of the same compound?
**A.** Its value is “did not induce any significant abnormal changes”.

**Q.** What about the “histopathological evaluations of liver, kidneys, heart, spleen and lungs” value (ICR mice; [10]) of the same compound?
**A.** The value was “no significant differences”.

**Q.** What about the therapeutic window (ICR mice; 50 mg kg^−1 vs effective dose 5 mg kg^−1) of the same compound?
**A.** Its therapeutic window is “at least tenfold”.
